Assay results as given in patent US11096961B2, “Pharmaceutical composition for suppressing spinal cord ischemic disorder” (SUMITOMO SEIKA CHEMICALS CO., LTD., priority 2019, dated 2021).

How the values were obtained:
[1] = tested on: mouse transient spinal cord ischemia model; assay: Evaluation of motor function by Basso Mouse Scale (BMS) after spinal cord ischemia; type: in vivo; settings: inhalation of 5% carbon dioxide gas, compared with 100% oxygen controls, FIGS. 2A-2B
Source text: (§1) An 8 to 12-week-old male mouse was used for creating a mouse transient spinal cord ischemia model. The mouse was subjected to endotracheal intubation under anesthesia by the inhalation of isoflurane and cannulation for measuring blood pressure in the left femoral artery. The cervix and a part of the sternum were incised, and the left common carotid artery, the aortic arch, and the left subclavian artery were exposed. The blood flow was intercepted at the aortic arch and the left subclavian artery base using two vascular clips. The vascular clips were removed 4 minutes and 30 seconds after the blood flow interception, and the blood flow interception was released. […]
(§2) The inhalation of 5% carbon dioxide gas was started from the cannulation in the process of creating the mouse transient spine ischemia model, and the inhalation was continued until the end of the model creation. […] The spinal cord blood flow (SCBF) before the blood flow interception was defined as 100%, and the spinal cord blood flow was measured for 480 seconds after the blood flow interception was released. A known method (Basso et al., J Nurotrauma, 23(5): 635-59, 2006) was partially modified, and the motor functions were continuously evaluated by the Basso Mouse Scale (BMS) 24, 48 and 72 hours after spinal cord ischemia. […]

[2] = tested on: mouse transient spinal cord ischemia model; assay: Measurement of spinal cord blood flow (SCBF) after release of blood flow interception; type: in vivo; settings: inhalation of 5% carbon dioxide gas from cannulation until end of model creation; SCBF before interception = 100%; measured for 480 seconds after release of interception; compared with 100% oxygen control; FIG. 1
Source text: as §1, §2

SMILES: O=C=O [5% carbon dioxide gas, carbon dioxide]
- decreases in the motor functions (Basso Mouse Scale) ([1]; BMS 24, 48 and 72 hours after spinal cord ischemia): hardly observed
- onset of late-onset paraplegia ([1]; BMS=0 to 5 is paraplegia or death, 24, 48 and 72 hours after ischemia): suppressed remarkably
- spinal cord blood flow (SCBF) in the ischemic state [2]: improved more rapidly
